# From patent US11969428B2, “Methods and pharmaceutical compositions for treating lymphoid malignancy” (priority 2011, dated 2024)
# How the values were obtained:
# Ca2+ flux in thymocytes = assay: Calcium flux assay after TCR cross-linking; assay type: cell-based, mouse; conditions: wild type thymocytes; to levels of Pik3cg−/−;pik3cd−/− counterparts
# Experimental: Thymocytes or lymphocytes were preloaded with Fluo-4 AM (Molecular Probes, Eugene, OR) at 5 μg/mL for 30 minutes at 37° C., labeled with anti-CD4-APC conjugate (BD Biosciences) to permit gating on this T-cell subset during analysis, and finally washed and resuspended (2×10^6/mL) in DMEM and 10% FCS. After a baseline was established at quiescence, Ca^2+ flux was induced by the addition in tandem of anti-CD3e (hamster antimouse antibody; BD Biosciences) and the anti-hamster IgG polyclonal antibody (Jackson ImmunoResearch, West Grove, PA) for cross-linking. The resultant flux in Ca^2+ was measured for 5 minutes by flow cytometry, and total flux was established by the addition of ionomycin (0.5 μg/mL). Drug inhibition of Ca^2+ flux was measured after 30 minute pre-incubation with CAL-130 at room temperature of dye loaded cells. Percentage overall change in Ca^2+ flux is reported as (Ca^2+ fluxpeak−Ca^2+ fluxbaseline/Ca^2+fluxionomycin−Ca^2+fluxbaseline)×100.
# CCRF-CEM cells = assay: Cell proliferation and apoptosis (cell counting, Annexin V); assay type: cell-based, human; conditions: CCRF-CEM
# Experimental: Cell proliferation of CCRF-CEM cells or shRNA transfected CCRF-CEM cells, in the presence or absence of appropriate drug, was followed by cell counting of samples in triplicate using a hemocytometer and trypan blue. For apoptosis determinations of untransfected or shRNA transfected CCRF-CEMs, cells were stained with APC-conjugated Annexin-V (BD Biosciences) in Annexin Binding Buffer (Miltyeni Biotec) and analyzed by flow cytometry. For primary T-ALL samples, cell viability was assessed using the BD Cell Viability kit (BD Biosciences) coupled with the use of fluorescent counting beads as previously described (Armstrong et al., 2009). For this, cells were plated with MS5-DL1 stroma cells, and after 72 hours following drug treatment cells were harvested and stained with an APC-conjugated anti-human CD45 followed by a staining with the above kit according to the manufacturer's instructions.
# thymocytes = assay: Effect on thymi of 6 week old mice treated 7 days; assay type: in vivo, mouse; conditions: 10 mg kg−1 every 8 hours for 7 days
# Experimental: Cell counts were measured on a Hemavet 850FS system (CDC Technologies, Oxford, CT), and standard procedures were followed for staining cells with the following antibody conjugates for flow cytometry (BD Biosciences, San Jose, CA) (Cella et al., 2004): phycoerythrin (PE) anti-CD4 (clone H129.19), fluorescein (FITC), PE, cytochrome c (CyC), or biotin anti-CD8a, FITC CD3c, CyC anti-B220, and Thy 1.2. Biotinylated antibodies were detected with either streptavidin-PE or streptavidin-CyC. Subsets of DN thymocytes were analyzed based on expression of CD25 and CD44 after gating out cells that stained with a cocktail of biotinylated antibodies to CD4, CD8, B220, Mac-1, and Gr-1 followed by streptavidin Cy-Chrome.
# To assess the in vivo efficacy of the inhibitor, its effects on thymi of 6 week old mice were determined, specifically for its ability to recapitulate the phenotype observed when both p110γ and p110δ are deficient. Animals received 10 mg kg^−1 of the inhibitor orally, which was sufficient to maintain plasma concentrations of 0.33±0.18 μM at the end of 8 hours (FIG. 16D). […] In particular, there was a 18-fold reduction in total thymocyte number in comparison to controls, which was primarily due to the loss of DP population (FIG. 16H). These observations are consistent with the ability of CAL-130 to preferentially block the function of both PI3Kγ and PI3Kδ.
# [1] = tested on: primary human T-ALL tumor cells; assay: Akt phosphorylation in primary T-ALL samples (immunoblot); assay type: cell-based; conditions: 6 hours of treatment
# Experimental: Cell lysates (from cell lines or thymocytes) were prepared on ice in M-PER Mammalian Protein Extraction reagent (Pierce) containing a cocktail of protease and phosphatase inhibitors (Swat et al., 2006). Equal amounts of total protein from lysates were subjected to SDS-PAGE, transferred to PVDF membrane (Immobilon-P, Millipore), and membranes probed by overnight incubation with appropriate primary antibodies. Bound antibodies were visualized with HRP-conjugated secondary antibodies and ECL chemistry (SuperPico West, Pierce).
# PI3Kα = PI3Kα isoform selective cell-based assay (PDGF-stimulated SW3T3 cells, P-Akt); conditions: compared to pan-PI3K/mTOR inhibitor BEZ235
# Experimental: For the analysis of p110α-mediated signaling, SW3T3 cells were placed in serum free media (3 hours) and incubated with either CAL-130 or the Pan-PI3K/mTor inhibitor BEZ235 (Selleck Chemicals) for 1 hour prior to stimulation with PDGF (10 ng/ml; Cell Signaling) for 10 minutes at 37° C. After washing once in cold phosphate-buffered saline (PBS), the cell pellet was resuspended in lysis buffer (50 mM HEPES [N-2-hydroxyethylpiperazine-N-2-ethanesulfonic acid], pH 7.4, 150 mM NaCl, 10% glycerol, 1% Triton X-100, 1.5 mM MgCl2, 1 mM EGTA [ethylene glycol tetraacetic acid], 100 mM NaF, 1 mM phenylmethylsulfonyl fluoride, 1 mM NaVO4, 1 μg/ml leupeptin, and 1 μg/ml aprotinin) for 15 minutes on ice. Whole-cell lysates were obtained by centrifugation, and the soluble protein analyzed by Western blotting for Akt and P-Akt levels. Quantification was done using the Li-COR Odyssey imaging system.
# CCRF-CEM xenograft = assay: Systemic (intravenous) CCRF-CEM xenograft, survival; assay type: in vivo, mouse; conditions: treatment from 3 days post-injection for 7 days
# Experimental: After 3 days, mice were segregated into two treatment groups that received either CAL-130 or vehicle by oral gavage as described above for 7 days. Mice in both groups were then followed until moribund (and euthanized).
# In the former, luciferase expressing CCRF-CEM cells were injected into the flanks of immunodeficient mice and allowed to grow for 1 week before administering vehicle control or inhibitor (10 mg kg^−1 every 8 hours) for a total of 4 days. In the latter, treatment commenced 3 days post-injection of tumor cells for a total of 7 days. […] This translated into an increase in median survival time for treated animals with systemic disease of 35 days versus 23 days for mice that received vehicle control alone (FIG. 19D).
# [2] = within 24 hours, persisted over 4 days
smiles,measurement,setting,value
Cc1ccccc1-n1c(C(C)Nc2nc(N)nc3nc[nH]c23)nc2cccc(C)c2c1=O (centres unmarked) [CAL-130],calcium flux in response to TCR cross-linking,Ca2+ flux in thymocytes,attenuated
same,apoptotic properties of dexamethasone,CCRF-CEM cells; dexamethasone in combination with 2.5 μM CAL-130,significantly enhanced
same,apoptosis,CCRF-CEM cells; [2],promoted apoptosis
same,proliferation,CCRF-CEM cells; [2],prevented proliferation
same,reduction in total thymocyte number in comparison to controls,thymocytes,18 fold
same,Akt phosphorylation,[1],reduction
same,PDGF-induced activation of PI3Kα (Akt phosphorylation),PI3Kα,limited ability to impair
same,median survival time,CCRF-CEM xenograft,35 days
